EC50 and CC50 data for 8 compounds are collected here from patent US12594276B2, “Inhibitors of human immunodeficiency virus replication” (ViiV Healthcare UK (No.5) Limited, priority 2024, dated 2026).

A word on the EC50: it is the concentration needed to bring the measured effect to its halfway point. As usually defined, the CC50 is the concentration giving 50% cytotoxicity.

Data set [1] has as its system recombinant NL4-3 virus (nef section replaced with Renilla luciferase gene) in MT-2 cells. Kind of data set: HIV cell culture assay (antiviral activity, luciferase readout). The data set is classed as cell-based. The settings on record: Renilla, NL43, MT-2 cells infected for 4-5 days with recombinant NL4-3 Renilla luciferase virus. Put shortly: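 293T transfection → virus harvest at 2-3 d → titer in MT-2 by luciferase. MT-2 + virus + serial cpd dilutions, 4-5 d. Live-cell luciferase read; EC50 by median effect fit.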

Data set [2] is described as follows: Compound cytotoxicity, XTT-based colorimetric assay. The settings on record: human; uninfected MT2 cells, day 4, XTT; read-out: CC50. The data set is classed as cell-based. Summed up:
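Cells seeded as for the antiviral assay but left uninfected (MT2). Compound exposure continued to day 4. XTT reagent added and colour read. CC50 calculated.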
A general note: Tetrazolium assays rely on reduction of a dye to a coloured formazan, in cell work by metabolically active cells.

Consider `Cc1cc(C2CCC(F)(F)CC2)nc2nc([C@H](Cc3cc(F)cc(F)c3)NC(=O)Cn3nc(C4CC4)c4c3C[C@@H]3C[C@H]43)n(-c3ccc(Cl)c4c(NS(C)(=O)=O)nn(C[C@@H](C)N5C[C@H](F)C[C@H](F)C5)c34)c(=O)c12` (relative stereo) [Example 685, N-[(1S)-1-[(3P)-3-{4-chloro-1-[(2R)-2-[(3R,5S)-3,5-difluoropiperidin-1-yl]propyl]-3-methanesulfonamido-1H-indazol-7-yl}-7-(4,4-difluorocyclohexyl)-5-methyl-4-oxo-3H,4H-pyrido[2,3-d]pyrimidin-2-yl]-2-(3,5-difluorophenyl)ethyl]-2-[(2R*,4R*)-9-cyclopropyl-7,8-diazatricyclo[4.3.0.0^2,^4]nona-1(6),8-dien-7-yl]acetamide], for which the EC50 in data set [1] came out at 0.01 nM. Also, the CC50 at 4 days in data set [2] is greater than 20 nM.

Regarding `Cc1cc(C2CCC(F)(F)CC2)nc2nc([C@H](Cc3cc(F)cc(F)c3)NC(=O)Cn3nc(C4CC4)c4c3C[C@@H]3C[C@H]43)n(-c3ccc(Cl)c4c(NS(C)(=O)=O)nn(CC5(N6C[C@@H](C)O[C@@H](C)C6)CC5)c34)c(=O)c12` (relative stereo) [Example 691, N-[(1S)-1-[(3P)-3-[4-chloro-1-({1-[(2R,6S)-2,6-dimethylmorpholin-4-yl]cyclopropyl}methyl)-3-methanesulfonamido-1H-indazol-7-yl]-7-(4,4-difluorocyclohexyl)-5-methyl-4-oxo-3H,4H-pyrido[2,3-d]pyrimidin-2-yl]-2-(3,5-difluorophenyl)ethyl]-2-[(2R*,4R*)-9-cyclopropyl-7,8-diazatricyclo[4.3.0.0^2,^4]nona-1(6),8-dien-7-yl]acetamide], the concentration giving a half-maximal response (EC50) in data set [1] was 0.007 nM. The CC50 at 4 days in data set [2] is greater than 20 nM.

As for `C[C@H](O)c1cc(C2CCC(F)(F)CC2)nc2nc([C@H](Cc3cc(F)cc(F)c3)NC(=O)Cn3nc(C(F)F)c4c3C(F)(F)[C@@H]3C[C@H]43)n(-c3ccc(Cl)c4c(NS(C)(=O)=O)nn(CCN5CCC(F)(F)CC5)c34)c(=O)c12` (relative stereo) [Example 698, N-[(1S)-1-[(3P)-3-{4-chloro-1-[2-(4,4-difluoropiperidin-1-yl)ethyl]-3-methanesulfonamido-1H-indazol-7-yl}-7-(4,4-difluorocyclohexyl)-5-[(1R**)-1-hydroxyethyl]-4-oxo-3H,4H-pyrido[2,3-d]pyrimidin-2-yl]-2-(3,5-difluorophenyl)ethyl]-2-[(2R*,4S*)-9-(difluoromethyl)-5,5-difluoro-7,8-diazatricyclo[4.3.0.0^2,4]nona-1(6),8-dien-7-yl]acetamide], the EC50 in data set [1] was determined as 0.027 nM. In data set [2], the CC50 at 4 days was greater than 20 nM.

As to `Cc1cc(C2(F)CCC(F)(F)CC2)nc2nc([C@H](Cc3cc(F)cc(F)c3)NC(=O)Cn3nc(C4CC4)c4c3C[C@@H]3C[C@H]43)n(-c3ccc(Cl)c4c(NS(C)(=O)=O)nn(C[C@@H](C)N5C[C@H](F)C[C@H](F)C5)c34)c(=O)c12` (relative stereo) [Example 702, N-[(1S)-1-[(3P)-3-{4-chloro-1-[(2R)-2-[(3R,5S)-3,5-difluoropiperidin-1-yl]propyl]-3-methanesulfonamido-1H-indazol-7-yl}-5-methyl-4-oxo-7-(1,4,4-trifluorocyclohexyl)-3H,4H-pyrido[2,3-d]pyrimidin-2-yl]-2-(3,5-difluorophenyl)ethyl]-2-[(2R*,4R*)-9-cyclopropyl-7,8-diazatricyclo[4.3.0.0^2,^4]nona-1(6),8-dien-7-yl]acetamide], in data set [1], the EC50 stood at 0.016 nM. In addition, in data set [2], the CC50 at 4 days was greater than 20 nM.

On to `Cc1cc(C2CCC(F)(F)CC2)nc2nc([C@H](Cc3cc(F)cc(F)c3)NC(=O)Cn3nc(C4CC4)c4c3C[C@@H]3C[C@H]43)n(-c3ccc(Cl)c4c(NS(C)(=O)=O)nn(C[C@H](C)N5CC(C)(C)OC(C)(C)C5)c34)c(=O)c12` (relative stereo) [Example 714, N-[(1S)-1-[(3P)-3-{4-chloro-3-methanesulfonamido-1-[(2S)-2-(2,2,6,6-tetramethylmorpholin-4-yl)propyl]-1H-indazol-7-yl}-7-(4,4-difluorocyclohexyl)-5-methyl-4-oxo-3H,4H-pyrido[2,3-d]pyrimidin-2-yl]-2-(3,5-difluorophenyl)ethyl]-2-[(2R*,4R*)-9-cyclopropyl-7,8-diazatricyclo[4.3.0.0^2,4]nona-1(6),8-dien-7-yl]acetamide], for which the EC50 in data set [1] is 0.024 nM. Besides, the CC50 at 4 days in data set [2] was greater than 20 nM.

Regarding `Cc1cc(C2(F)CCC(F)(F)CC2)nc2nc([C@H](Cc3cc(F)cc(F)c3)NC(=O)Cn3nc(C4CC4)c4c3C[C@@H]3C[C@H]43)n(-c3ccc(Cl)c4c(NS(C)(=O)=O)nn(C[C@H](C)N5C[C@@H](C)O[C@@H](C)C5)c34)c(=O)c12` (relative stereo) [Example 722, N-[(1S)-1-[(3P)-3-{4-chloro-1-[(2S)-2-[(2R,6S)-2,6-dimethylmorpholin-4-yl]propyl]-3-methanesulfonamido-1H-indazol-7-yl}-5-methyl-4-oxo-7-(1,4,4-trifluorocyclohexyl)-3H,4H-pyrido[2,3-d]pyrimidin-2-yl]-2-(3,5-difluorophenyl)ethyl]-2-[(2R*,4R*)-9-cyclopropyl-7,8-diazatricyclo[4.3.0.0^2,^4]nona-1(6),8-dien-7-yl]acetamide], the EC50 in data set [1] stood at 0.007 nM. The half-maximal cytotoxic concentration (CC50) at 4 days in data set [2] was greater than 20 nM.

As to `Cc1cc(C2(F)CCC(F)(F)CC2)nc2nc([C@H](Cc3cc(F)cc(F)c3)NC(=O)Cn3nc(C4CC4)c4c3C[C@@H]3C[C@H]43)n(-c3ccc(Cl)c4c(NS(C)(=O)=O)nn(C[C@@H](C)N5C[C@@H](C)O[C@@H](C)C5)c34)c(=O)c12` (relative stereo) [Example 723, N-[(1S)-1-[(3P)-3-{4-chloro-1-[(2R)-2-[(2R,6S)-2,6-dimethylmorpholin-4-yl]propyl]-3-methanesulfonamido-1H-indazol-7-yl}-5-methyl-4-oxo-7-(1,4,4-trifluorocyclohexyl)-3H,4H-pyrido[2,3-d]pyrimidin-2-yl]-2-(3,5-difluorophenyl)ethyl]-2-[(2R*,4R*)-9-cyclopropyl-7,8-diazatricyclo[4.3.0.0^2,^4]nona-1(6),8-dien-7-yl]acetamide], the EC50 in data set [1] is 0.012 nM. Moreover, in data set [2], the CC50 at 4 days was greater than 20 nM.

`Cc1cc(C2CCC(F)(F)CC2)nc2nc([C@H](Cc3cc(F)cc(F)c3)NC(=O)Cn3nc(C4CC4)c4c3C[C@@H]3C[C@H]43)n(-c3ccc(Cl)c4c(NS(C)(=O)=O)nn([C@@H](C)CN5CC(C)(C)OC(C)(C)C5)c34)c(=O)c12` (relative stereo) [Example 724, N-[(1S)-1-[(3P)-3-{4-chloro-3-methanesulfonamido-1-[(2S)-1-(2,2,6,6-tetramethylmorpholin-4-yl)propan-2-yl]-1H-indazol-7-yl}-7-(4,4-difluorocyclohexyl)-5-methyl-4-oxo-3H,4H-pyrido[2,3-d]pyrimidin-2-yl]-2-(3,5-difluorophenyl)ethyl]-2-[(2R*,4R*)-9-cyclopropyl-7,8-diazatricyclo[4.3.0.0^2,^4]nona-1(6),8-dien-7-yl]acetamide]: the EC50 in data set [1] was found to be 0.036 nM. The CC50 at 4 days in data set [2] was greater than 20 nM.
